Data: PubChem BioAssay (NCI)
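1) Cells in 96-well plates. 2) Compound, 48 h, 5 concentrations. 3) Linear interpolation between surrounding doses. 4) Unreached endpoint = highest concentration. TGI: total growth inhibition.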

What was measured:
Experiment in all cases: growth of human tumour cells (NCI), 48 h
[1] = test system: UACC-62 melanoma
[2] = test system: A549 NSCLC
[3] = test system: SF-295 CNS
[4] = test system: SK-MEL-2 melanoma
[5] = test system: HOP-92 NSCLC
[6] = test system: NCI-H460 lung
[7] = test system: OVCAR-3 ovarian
[8] = test system: NCI-H23 lung
[9] = test system: COLO 205 colon
[10] = test system: SN12C renal
[11] = test system: SF-539 CNS
[12] = test system: OVCAR-8 ovarian
[13] = test system: SW-620 colon
[14] = test system: SK-OV-3 ovarian
[15] = test system: MALME-3M melanoma
[16] = test system: K-562 leukemia
[17] = test system: NCI/ADR-RES ovarian
[18] = test system: SNB-19 CNS
[19] = test system: HS 578T breast
[20] = test system: HL-60(TB) leukemia
[21] = test system: OVCAR-5 ovarian
[22] = test system: UACC-257 melanoma
[23] = test system: HCT-15 colon
[24] = test system: LOX IMVI melanoma
[25] = test system: SK-MEL-28 melanoma
[26] = test system: MDA-N
[27] = test system: 786-0 renal
[28] = test system: SF-268 CNS
[29] = test system: HOP-62 NSCLC
[30] = test system: U251 CNS
[31] = test system: BT-549 breast
[32] = test system: HCT-116 colon
[33] = test system: SNB-75 CNS
[34] = test system: KM12 colon
[35] = test system: A498 renal
[36] = test system: UO-31 renal
[37] = test system: RPMI-8226 leukemia
[38] = test system: MDA-MB-231 breast
[39] = test system: EKVX NSCLC
[40] = test system: OVCAR-4 ovarian
[41] = test system: IGROV1 ovarian
[42] = test system: HT29 colon
[43] = test system: TK-10 renal
[44] = test system: NCI-H522 lung
[45] = test system: SR leukemia
[46] = test system: DU-145 prostate
[47] = test system: CCRF-CEM leukemia
[48] = test system: CAKI-1 renal
[49] = test system: T-47D breast
[50] = test system: SK-MEL-5 melanoma
[51] = test system: MDA-MB-435
[52] = test system: MOLT-4 leukemia
[53] = test system: MCF7 breast
[54] = test system: ACHN renal
[55] = test system: PC-3 prostate
[56] = test system: M14 melanoma
[57] = test system: RXF 393 renal
[58] = test system: HCC-2998 colon

Cc1ccc(C)c(NC(=O)C(Cc2c[nH]c3ccccc23)NC(=O)OCc2ccccc2)c1 (stereo not drawn)
TGI [1]: 59.7 µM
TGI [2]: 26.1 µM
TGI [3]: > 100 µM
TGI [4]: 45.9 µM
TGI [5]: 57.5 µM
TGI [6]: 44 µM
TGI [7]: > 100 µM
TGI [8]: 68.4 µM
TGI [9]: 46.1 µM
TGI [10]: > 100 µM
TGI [11]: 21.5 µM
TGI [12]: > 100 µM
TGI [13]: 35.5 µM
TGI [14]: 50.1 µM
TGI [15]: 98.9 µM
TGI [16]: 28.9 µM
TGI [17]: 33 µM
TGI [18]: 27.6 µM
TGI [19]: > 100 µM
TGI [20]: 15.4 µM
TGI [21]: > 100 µM
TGI [22]: 34.3 µM
TGI [23]: > 100 µM
TGI [24]: > 100 µM
TGI [25]: > 100 µM
TGI [26]: > 100 µM
TGI [27]: 39.3 µM
TGI [28]: > 100 µM
TGI [29]: > 100 µM
TGI [30]: 35.1 µM
TGI [31]: 44.8 µM
TGI [32]: 98.6 µM
TGI [33]: 27.9 µM
TGI [34]: 69.7 µM
TGI [35]: > 100 µM
TGI [36]: 34.9 µM
TGI [37]: 44 µM
TGI [38]: 47.4 µM
TGI [39]: 49 µM
TGI [40]: 25 µM
TGI [41]: 70.8 µM
TGI [42]: 45.1 µM
TGI [43]: 39.2 µM
TGI [44]: 69.1 µM
TGI [45]: 48.2 µM
TGI [46]: 33.7 µM
TGI [47]: 12.2 µM
TGI [48]: 56.7 µM
TGI [49]: 38 µM
TGI [50]: 34.5 µM
TGI [51]: > 100 µM
TGI [52]: 19.6 µM
TGI [53]: > 100 µM
TGI [54]: > 100 µM
TGI [55]: 28.6 µM
TGI [56]: 34.7 µM
TGI [57]: 22 µM

COC1(C)C=NCC(C)(C)NC(=O)C(C)(OC)C=NCC(C)(C)NC1=O (stereo not drawn)
TGI [1]: > 10 µM
TGI [2]: > 10 µM
TGI [58]: > 10 µM
TGI [3]: > 10 µM
TGI [5]: > 10 µM
TGI [8]: > 10 µM
TGI [9]: > 10 µM
TGI [10]: > 10 µM
TGI [11]: > 10 µM
TGI [12]: > 10 µM
TGI [13]: > 10 µM
TGI [14]: > 10 µM
TGI [15]: > 10 µM
TGI [16]: > 10 µM
TGI [17]: > 10 µM
TGI [18]: > 10 µM
TGI [19]: > 10 µM
TGI [20]: > 10 µM
TGI [22]: > 10 µM
TGI [23]: > 10 µM
TGI [25]: > 10 µM
TGI [26]: > 10 µM
TGI [27]: > 10 µM
TGI [28]: > 10 µM
TGI [29]: > 10 µM
TGI [30]: > 10 µM
TGI [31]: > 10 µM
TGI [32]: > 10 µM
TGI [33]: > 10 µM
TGI [34]: > 10 µM
TGI [37]: > 10 µM
TGI [38]: > 10 µM
TGI [39]: > 10 µM
TGI [40]: > 10 µM
TGI [41]: > 10 µM
TGI [42]: > 10 µM
TGI [43]: > 10 µM
TGI [44]: > 10 µM
TGI [45]: > 10 µM
TGI [46]: > 10 µM
TGI [47]: > 10 µM
TGI [48]: > 10 µM
TGI [49]: > 10 µM
TGI [50]: > 10 µM
TGI [51]: > 10 µM
TGI [52]: > 10 µM
TGI [53]: > 10 µM
TGI [54]: > 10 µM
TGI [55]: > 10 µM
TGI [56]: > 10 µM
TGI [57]: > 10 µM
